Tests used:
Test in all cases: KINOMEscan scanMAX
Format in all cases: binding
Details in all cases: read-out: Percent Control
[1] = biological target: T1, PKN1 (Homo sapiens, UniProt Q16512)
T1 construct: purchased Eurofins Discovery (DiscoverX KINOMEscan scanMAX)
Description: (§1) The kinome-wide binding assay was performed by Eurofins Discovery using the scanMAX screening platform. More information can be found on the Eurofins Discovery Web site.

[2] = biological target: T2, ABL1(Q252H)-nonphosphorylated (Homo sapiens, UniProt P00519, Q252H)
T2 construct: purchased Eurofins Discovery (DiscoverX KINOMEscan scanMAX)
Description: as §1

[3] = biological target: T3, MST4 (Homo sapiens, UniProt Q9P289)
T3 construct: purchased Eurofins Discovery (DiscoverX KINOMEscan scanMAX)
Description: as §1

[4] = biological target: T4, MARK1 (Homo sapiens, UniProt Q9P0L2)
T4 construct: purchased Eurofins Discovery (DiscoverX KINOMEscan scanMAX)
Description: as §1

[5] = biological target: T5, YSK1 (Homo sapiens, UniProt O00506)
T5 construct: purchased Eurofins Discovery (DiscoverX KINOMEscan scanMAX)
Description: as §1

[6] = biological target: T6, PFCDPK1(P.falciparum) (Plasmodium falciparum, UniProt P62344)
T6 construct: purchased Eurofins Discovery (DiscoverX KINOMEscan scanMAX)
Description: as §1

[7] = biological target: T7, MAP3K2 (Homo sapiens, UniProt Q9Y2U5)
T7 construct: purchased Eurofins Discovery (DiscoverX KINOMEscan scanMAX)
Description: as §1

[8] = biological target: T8, SBK1 (Homo sapiens, UniProt Q52WX2)
T8 construct: purchased Eurofins Discovery (DiscoverX KINOMEscan scanMAX)
Description: as §1

[9] = biological target: T9, TNIK (Homo sapiens, UniProt Q9UKE5)
T9 construct: purchased Eurofins Discovery (DiscoverX KINOMEscan scanMAX)
Description: as §1

[10] = biological target: T10, NLK (Homo sapiens, UniProt Q9UBE8)
T10 construct: purchased Eurofins Discovery (DiscoverX KINOMEscan scanMAX)
Description: as §1

[11] = biological target: T11, DCAMKL1 (Homo sapiens, UniProt O15075)
T11 construct: purchased Eurofins Discovery (DiscoverX KINOMEscan scanMAX)
T11 sequence (O15075 whole entry): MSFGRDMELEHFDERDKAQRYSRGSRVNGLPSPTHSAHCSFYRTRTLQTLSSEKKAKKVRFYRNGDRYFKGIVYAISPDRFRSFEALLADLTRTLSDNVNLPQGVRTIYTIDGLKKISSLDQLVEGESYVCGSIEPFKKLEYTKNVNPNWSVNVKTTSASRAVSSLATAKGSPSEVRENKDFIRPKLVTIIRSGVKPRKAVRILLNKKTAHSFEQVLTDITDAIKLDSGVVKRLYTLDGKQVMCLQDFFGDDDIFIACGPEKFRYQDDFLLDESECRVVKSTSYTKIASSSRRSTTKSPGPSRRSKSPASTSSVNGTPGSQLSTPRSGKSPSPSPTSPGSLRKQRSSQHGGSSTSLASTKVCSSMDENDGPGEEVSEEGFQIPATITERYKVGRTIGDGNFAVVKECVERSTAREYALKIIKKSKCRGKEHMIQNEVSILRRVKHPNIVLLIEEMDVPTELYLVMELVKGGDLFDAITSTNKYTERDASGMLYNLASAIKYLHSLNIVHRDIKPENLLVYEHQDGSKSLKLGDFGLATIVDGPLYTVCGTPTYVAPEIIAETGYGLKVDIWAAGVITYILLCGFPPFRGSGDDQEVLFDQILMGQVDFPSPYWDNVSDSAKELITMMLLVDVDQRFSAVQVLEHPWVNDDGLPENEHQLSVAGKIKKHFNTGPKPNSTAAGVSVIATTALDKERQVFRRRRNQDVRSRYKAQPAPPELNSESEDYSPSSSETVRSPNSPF
Description: as §1

[12] = biological target: T12, RSK2(Kin.Dom.2-C-terminal) (Homo sapiens, UniProt P51812)
T12 construct: RSK2(Kin.Dom.2-C-terminal); purchased Eurofins Discovery (DiscoverX KINOMEscan scanMAX)
Description: as §1

[13] = biological target: T13, PIK3CA(M1043I) (Homo sapiens, UniProt P42336, M1043I)
T13 construct: purchased Eurofins Discovery (DiscoverX KINOMEscan scanMAX)
T13 sequence (P42336 whole entry M1043I): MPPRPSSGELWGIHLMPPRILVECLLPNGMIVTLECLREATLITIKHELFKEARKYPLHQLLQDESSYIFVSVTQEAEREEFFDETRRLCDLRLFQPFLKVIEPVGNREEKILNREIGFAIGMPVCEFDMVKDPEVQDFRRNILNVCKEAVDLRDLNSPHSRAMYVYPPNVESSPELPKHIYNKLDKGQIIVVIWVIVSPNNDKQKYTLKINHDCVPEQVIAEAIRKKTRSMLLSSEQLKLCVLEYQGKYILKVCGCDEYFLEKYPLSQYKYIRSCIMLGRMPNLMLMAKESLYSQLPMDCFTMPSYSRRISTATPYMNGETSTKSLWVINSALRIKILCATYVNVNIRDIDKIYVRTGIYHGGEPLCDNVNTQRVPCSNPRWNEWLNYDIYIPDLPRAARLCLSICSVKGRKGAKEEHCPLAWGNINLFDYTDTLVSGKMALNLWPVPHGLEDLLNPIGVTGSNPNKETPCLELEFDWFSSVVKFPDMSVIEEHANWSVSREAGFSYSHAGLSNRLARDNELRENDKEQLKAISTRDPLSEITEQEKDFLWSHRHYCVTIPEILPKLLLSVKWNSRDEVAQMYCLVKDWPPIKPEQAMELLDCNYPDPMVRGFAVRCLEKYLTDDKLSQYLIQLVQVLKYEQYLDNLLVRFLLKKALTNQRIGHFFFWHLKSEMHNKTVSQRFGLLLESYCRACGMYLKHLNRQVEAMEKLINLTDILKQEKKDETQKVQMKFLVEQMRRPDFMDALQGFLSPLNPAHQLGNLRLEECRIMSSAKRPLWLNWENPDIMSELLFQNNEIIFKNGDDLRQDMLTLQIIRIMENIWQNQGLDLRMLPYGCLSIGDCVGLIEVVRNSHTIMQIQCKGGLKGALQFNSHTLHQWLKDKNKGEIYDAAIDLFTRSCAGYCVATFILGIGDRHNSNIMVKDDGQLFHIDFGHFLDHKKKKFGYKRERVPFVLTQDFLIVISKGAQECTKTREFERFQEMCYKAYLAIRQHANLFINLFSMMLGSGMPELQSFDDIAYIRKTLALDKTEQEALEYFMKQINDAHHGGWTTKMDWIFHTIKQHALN
Description: as §1

[14] = biological target: T14, PCTK1 (Homo sapiens, UniProt Q00536)
T14 construct: purchased Eurofins Discovery (DiscoverX KINOMEscan scanMAX)
Description: as §1

[15] = biological target: T15, CSNK1G3 (Homo sapiens, UniProt Q9Y6M4)
T15 construct: purchased Eurofins Discovery (DiscoverX KINOMEscan scanMAX)
T15 sequence (Q9Y6M4 whole entry): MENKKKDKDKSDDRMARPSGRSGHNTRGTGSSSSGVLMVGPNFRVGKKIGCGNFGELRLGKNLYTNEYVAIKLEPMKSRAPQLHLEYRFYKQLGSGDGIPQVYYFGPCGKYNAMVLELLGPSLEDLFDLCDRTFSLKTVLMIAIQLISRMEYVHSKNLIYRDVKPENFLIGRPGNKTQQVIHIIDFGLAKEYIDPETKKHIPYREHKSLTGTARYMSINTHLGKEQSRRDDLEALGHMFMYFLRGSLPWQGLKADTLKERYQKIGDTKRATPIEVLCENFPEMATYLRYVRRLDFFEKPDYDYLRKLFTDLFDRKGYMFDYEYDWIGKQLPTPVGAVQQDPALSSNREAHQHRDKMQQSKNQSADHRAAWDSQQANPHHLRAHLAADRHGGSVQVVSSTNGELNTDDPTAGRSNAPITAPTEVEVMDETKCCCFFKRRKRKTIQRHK
Description: as §1

[16] = biological target: T16, VEGFR2 (Homo sapiens, UniProt P35968)
T16 construct: purchased Eurofins Discovery (DiscoverX KINOMEscan scanMAX)
T16 sequence (P35968 20-1356): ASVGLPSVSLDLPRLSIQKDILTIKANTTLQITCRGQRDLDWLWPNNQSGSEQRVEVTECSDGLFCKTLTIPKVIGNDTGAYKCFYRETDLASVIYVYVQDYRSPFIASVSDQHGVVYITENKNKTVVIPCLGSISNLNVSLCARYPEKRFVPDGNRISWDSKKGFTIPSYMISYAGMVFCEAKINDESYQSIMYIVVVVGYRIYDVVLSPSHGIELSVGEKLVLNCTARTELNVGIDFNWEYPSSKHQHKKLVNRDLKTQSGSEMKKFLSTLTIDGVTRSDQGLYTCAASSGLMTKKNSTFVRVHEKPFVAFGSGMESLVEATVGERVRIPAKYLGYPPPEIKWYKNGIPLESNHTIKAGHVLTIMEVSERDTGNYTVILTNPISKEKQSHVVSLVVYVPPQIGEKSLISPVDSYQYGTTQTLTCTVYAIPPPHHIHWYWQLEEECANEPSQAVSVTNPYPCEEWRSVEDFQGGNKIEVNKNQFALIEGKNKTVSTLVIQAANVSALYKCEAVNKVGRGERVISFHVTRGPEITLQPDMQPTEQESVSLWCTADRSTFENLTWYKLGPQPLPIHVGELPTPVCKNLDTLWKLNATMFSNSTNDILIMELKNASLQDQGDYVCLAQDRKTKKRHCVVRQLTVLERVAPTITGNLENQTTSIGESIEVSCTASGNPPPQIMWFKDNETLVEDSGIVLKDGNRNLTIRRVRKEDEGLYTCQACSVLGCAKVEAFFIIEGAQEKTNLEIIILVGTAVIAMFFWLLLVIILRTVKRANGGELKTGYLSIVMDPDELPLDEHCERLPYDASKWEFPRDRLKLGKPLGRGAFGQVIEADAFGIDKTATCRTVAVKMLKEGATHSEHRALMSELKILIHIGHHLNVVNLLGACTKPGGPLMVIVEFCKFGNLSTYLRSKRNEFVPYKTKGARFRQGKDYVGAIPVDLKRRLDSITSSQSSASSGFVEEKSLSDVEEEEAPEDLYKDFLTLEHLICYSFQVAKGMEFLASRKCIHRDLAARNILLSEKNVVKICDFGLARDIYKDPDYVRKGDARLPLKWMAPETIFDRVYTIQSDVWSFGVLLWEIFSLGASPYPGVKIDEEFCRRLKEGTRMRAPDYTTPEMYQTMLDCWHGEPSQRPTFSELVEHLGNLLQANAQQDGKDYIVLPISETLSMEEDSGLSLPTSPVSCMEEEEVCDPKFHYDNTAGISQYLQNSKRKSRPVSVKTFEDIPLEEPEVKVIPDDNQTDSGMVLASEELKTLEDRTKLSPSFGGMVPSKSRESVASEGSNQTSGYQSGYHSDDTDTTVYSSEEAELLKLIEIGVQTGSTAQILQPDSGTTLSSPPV
Description: as §1

[17] = biological target: T17, CDK4-cyclinD3 (Homo sapiens, UniProt P11802)
T17 construct: purchased Eurofins Discovery (DiscoverX KINOMEscan scanMAX)
T17 sequence (P11802 whole entry): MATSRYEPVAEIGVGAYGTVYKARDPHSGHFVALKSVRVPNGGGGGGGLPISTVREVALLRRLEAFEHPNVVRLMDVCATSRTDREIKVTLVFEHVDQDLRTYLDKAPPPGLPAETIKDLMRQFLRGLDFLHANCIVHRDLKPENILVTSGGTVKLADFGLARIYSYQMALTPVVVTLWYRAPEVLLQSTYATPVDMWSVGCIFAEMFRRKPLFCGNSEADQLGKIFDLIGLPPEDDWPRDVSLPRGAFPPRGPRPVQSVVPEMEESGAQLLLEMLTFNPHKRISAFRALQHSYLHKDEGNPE
T17 sequence (P30281 whole entry partner): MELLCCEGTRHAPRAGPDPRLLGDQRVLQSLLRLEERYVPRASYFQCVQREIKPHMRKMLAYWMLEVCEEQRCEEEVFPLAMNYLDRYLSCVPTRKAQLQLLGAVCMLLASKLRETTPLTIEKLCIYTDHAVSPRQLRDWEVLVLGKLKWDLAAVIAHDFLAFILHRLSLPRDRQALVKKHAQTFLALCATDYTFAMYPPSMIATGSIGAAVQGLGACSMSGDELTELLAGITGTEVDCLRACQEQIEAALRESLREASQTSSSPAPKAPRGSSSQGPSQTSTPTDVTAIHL
Description: as §1

[18] = biological target: T18, BMX (Homo sapiens, UniProt P51813)
T18 construct: purchased Eurofins Discovery (DiscoverX KINOMEscan scanMAX)
Description: as §1

[19] = biological target: T19, CDK11 (Homo sapiens, UniProt Q9BWU1)
T19 construct: purchased Eurofins Discovery (DiscoverX KINOMEscan scanMAX)
Description: as §1

[20] = biological target: T20, BRK (Homo sapiens, UniProt Q13882)
T20 construct: purchased Eurofins Discovery (DiscoverX KINOMEscan scanMAX)
Description: as §1

[21] = biological target: T21, ERK8 (Homo sapiens, UniProt Q8TD08)
T21 construct: purchased Eurofins Discovery (DiscoverX KINOMEscan scanMAX)
Description: as §1

[22] = biological target: T22, CAMK2D (Homo sapiens, UniProt Q13557)
T22 construct: purchased Eurofins Discovery (DiscoverX KINOMEscan scanMAX)
Description: as §1

[23] = biological target: T23, KIT-autoinhibited (Homo sapiens, UniProt P10721)
T23 construct: purchased Eurofins Discovery (DiscoverX KINOMEscan scanMAX)
Description: as §1

[24] = biological target: T24, MARK3 (Homo sapiens, UniProt P27448)
T24 construct: purchased Eurofins Discovery (DiscoverX KINOMEscan scanMAX)
Description: as §1

[25] = biological target: T25, TAOK1 (Homo sapiens, UniProt Q7L7X3)
T25 construct: purchased Eurofins Discovery (DiscoverX KINOMEscan scanMAX)
Description: as §1

[26] = biological target: T26, MET (Homo sapiens, UniProt P08581)
T26 construct: purchased Eurofins Discovery (DiscoverX KINOMEscan scanMAX)
Description: as §1

[27] = biological target: T27, AAK1 (Homo sapiens, UniProt Q2M2I8)
T27 construct: purchased Eurofins Discovery (DiscoverX KINOMEscan scanMAX)
Description: as §1

[28] = biological target: T28, PKNB(M.tuberculosis) (Mycobacterium tuberculosis, UniProt P9WI81)
T28 construct: purchased Eurofins Discovery (DiscoverX KINOMEscan scanMAX)
Description: as §1

[29] = biological target: T29, p38-alpha (Homo sapiens, UniProt Q16539)
T29 construct: purchased Eurofins Discovery (DiscoverX KINOMEscan scanMAX)
Description: as §1

[30] = biological target: T30, FGFR3(G697C) (Homo sapiens, UniProt P22607, G697C)
T30 construct: purchased Eurofins Discovery (DiscoverX KINOMEscan scanMAX)
Description: as §1

[31] = biological target: T31, ASK2 (Homo sapiens, UniProt O95382)
T31 construct: purchased Eurofins Discovery (DiscoverX KINOMEscan scanMAX)
Description: as §1

[32] = biological target: T32, BRAF (Homo sapiens, UniProt P15056)
T32 construct: purchased Eurofins Discovery (DiscoverX KINOMEscan scanMAX)
Description: as §1

[33] = biological target: T33, MTOR (Homo sapiens, UniProt P42345)
T33 construct: purchased Eurofins Discovery (DiscoverX KINOMEscan scanMAX)
Description: as §1

[34] = biological target: T34, FYN (Homo sapiens, UniProt P06241)
T34 construct: purchased Eurofins Discovery (DiscoverX KINOMEscan scanMAX)
T34 sequence (P06241 whole entry): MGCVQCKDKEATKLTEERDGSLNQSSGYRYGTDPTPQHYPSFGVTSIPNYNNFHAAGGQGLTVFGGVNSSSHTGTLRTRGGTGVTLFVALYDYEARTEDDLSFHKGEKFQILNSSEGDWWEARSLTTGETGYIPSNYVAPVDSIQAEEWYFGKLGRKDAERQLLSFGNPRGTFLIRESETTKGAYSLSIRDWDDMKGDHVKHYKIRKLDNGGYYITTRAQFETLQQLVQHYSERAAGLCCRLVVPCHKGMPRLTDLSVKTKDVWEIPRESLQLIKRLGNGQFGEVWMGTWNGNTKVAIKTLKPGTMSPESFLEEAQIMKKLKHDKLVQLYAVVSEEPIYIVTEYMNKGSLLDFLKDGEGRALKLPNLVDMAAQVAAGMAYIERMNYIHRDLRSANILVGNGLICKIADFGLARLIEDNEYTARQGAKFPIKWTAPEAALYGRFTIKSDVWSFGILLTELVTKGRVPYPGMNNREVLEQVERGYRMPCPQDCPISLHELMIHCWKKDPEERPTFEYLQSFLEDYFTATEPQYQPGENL
Description: as §1

Cc1cc(Nc2ccc(F)c(CC3(C(=O)N4CCC(F)(CN5CCN(c6ccc(N7CCC(=O)NC7=O)cn6)CC5)CC4)CCN(Cc4cccc(Cl)c4F)CC3)n2)n[nH]1 [SK5527]
remaining binding at 0.1 µM ([1]; 100 nM): 100%
remaining binding at 1 µM ([1]; 1000 nM): 89%
remaining binding at 0.1 µM ([2]; 100 nM): 63%
remaining binding at 1 µM ([2]; 1000 nM): 15%
remaining binding at 0.1 µM ([3]; 100 nM): 95%
remaining binding at 1 µM ([3]; 1000 nM): 86%
remaining binding at 0.1 µM ([4]; 100 nM): 100%
remaining binding at 1 µM ([4]; 1000 nM): 100%
remaining binding at 0.1 µM ([5]; 100 nM): 100%
remaining binding at 1 µM ([5]; 1000 nM): 98%
remaining binding at 0.1 µM ([6]; 100 nM): 87%
remaining binding at 1 µM ([6]; 1000 nM): 81%
remaining binding at 0.1 µM ([7]; 100 nM): 92%
remaining binding at 1 µM ([7]; 1000 nM): 73%
remaining binding at 0.1 µM ([8]; 100 nM): 86%
remaining binding at 1 µM ([8]; 1000 nM): 64%
remaining binding at 0.1 µM ([9]; 100 nM): 96%
remaining binding at 1 µM ([9]; 1000 nM): 90%
remaining binding at 0.1 µM ([10]; 100 nM): 94%
remaining binding at 1 µM ([10]; 1000 nM): 82%
remaining binding at 0.1 µM ([11]; 100 nM): 100%
remaining binding at 1 µM ([11]; 1000 nM): 88%
remaining binding at 0.1 µM ([12]; 100 nM): 82%
remaining binding at 1 µM ([12]; 1000 nM): 89%
remaining binding at 0.1 µM ([13]; 100 nM): 100%
remaining binding at 1 µM ([13]; 1000 nM): 100%
remaining binding at 0.1 µM ([14]; 100 nM): 89%
remaining binding at 1 µM ([14]; 1000 nM): 88%
remaining binding at 0.1 µM ([15]; 100 nM): 100%
remaining binding at 1 µM ([15]; 1000 nM): 92%
remaining binding at 0.1 µM ([16]; 100 nM): 85%
remaining binding at 1 µM ([16]; 1000 nM): 65%
remaining binding at 0.1 µM ([17]; 100 nM): 100%
remaining binding at 1 µM ([17]; 1000 nM): 100%
remaining binding at 0.1 µM ([18]; 100 nM): 100%
remaining binding at 1 µM ([18]; 1000 nM): 73%
remaining binding at 0.1 µM ([19]; 100 nM): 92%
remaining binding at 1 µM ([19]; 1000 nM): 85%
remaining binding at 0.1 µM ([20]; 100 nM): 92%
remaining binding at 1 µM ([20]; 1000 nM): 88%
remaining binding at 0.1 µM ([21]; 100 nM): 89%
remaining binding at 1 µM ([21]; 1000 nM): 92%
remaining binding at 0.1 µM ([22]; 100 nM): 95%
remaining binding at 1 µM ([22]; 1000 nM): 93%
remaining binding at 0.1 µM ([23]; 100 nM): 94%
remaining binding at 1 µM ([23]; 1000 nM): 84%
remaining binding at 0.1 µM ([24]; 100 nM): 100%
remaining binding at 1 µM ([24]; 1000 nM): 87%
remaining binding at 0.1 µM ([25]; 100 nM): 79%
remaining binding at 1 µM ([25]; 1000 nM): 88%
remaining binding at 0.1 µM ([26]; 100 nM): 94%
remaining binding at 1 µM ([26]; 1000 nM): 81%
remaining binding at 0.1 µM ([27]; 100 nM): 100%
remaining binding at 1 µM ([27]; 1000 nM): 92%
remaining binding at 0.1 µM ([28]; 100 nM): 93%
remaining binding at 1 µM ([28]; 1000 nM): 94%
remaining binding at 0.1 µM ([29]; 100 nM): 100%
remaining binding at 1 µM ([29]; 1000 nM): 100%
remaining binding at 0.1 µM ([30]; 100 nM): 75%
remaining binding at 1 µM ([30]; 1000 nM): 67%
remaining binding at 0.1 µM ([31]; 100 nM): 62%
remaining binding at 1 µM ([31]; 1000 nM): 56%
remaining binding at 0.1 µM ([32]; 100 nM): 100%
remaining binding at 1 µM ([32]; 1000 nM): 100%
remaining binding at 0.1 µM ([33]; 100 nM): 100%
remaining binding at 1 µM ([33]; 1000 nM): 100%
remaining binding at 0.1 µM ([34]; 100 nM): 94%
remaining binding at 1 µM ([34]; 1000 nM): 71%

From PMC12670405, “Second-Generation AURKA-Targeting PROTACs: Structural Optimization toward in Vivo Degradation in Neuroblastoma” (Journal of Medicinal Chemistry, 2025)
